Source: article PMC9981206 (Cancer Research Communications, 2022)

Tests used:
Type in all cases: cell-based
[1] = tested on: RKO colon carcinoma cells; assay: MTS colorimetric cell growth assay, RKO; conditions: Homo sapiens, 120 h, read-out: RKO GI50
Text: (§1) The cell cultures were kept below 20 passages (∼10 weeks) and routinely monitored (upon thawing and monthly) for Mycoplasma infections with MycoAlert Mycoplasma Detection Kit (Lonza). All cell lines were authenticated by short tandem repeat profiling to confirm their identity (Eurofins). TNKS1/2 and PARP1 biochemical assays ([27, 32]), luciferase-based WNT/β-catenin signaling pathway reporter assay ([22, 27, 32]), anti-proliferative assays, and NCI-60 tumor cell line panel screen ([7]), immunoblot analyses ([7, 32, 39]), RNA isolation, and real-time qRT-PCR ([7, 27, 39, 40]) were performed as previously described.
(§2) B, IC50 values for inhibition of TNKS1, TNKS2, and PARP1 (biochemical assays) and luciferase-based WNT/β-catenin signaling reporter assay in HEK293 cells (WNT reporter). […] Mean ± SD values from a minimum of three independent experiments are shown. For B and C, numbers in superscript indicate data from reference 22, 27, 31, and 32. […] C, MTS colorimetric cell growth assay for various concentrations of tankyrase inhibitors in treated COLO 320DM and RKO colon cancer cells. […] Data from one representative experiment of more than three repeated assays, each with six replicates, are shown.

WNT/β-catenin signaling = assay: luciferase-based WNT/β-catenin signaling reporter assay in HEK293 cells; conditions: Homo sapiens, HEK293, read-out: WNT reporter IC50
Method: as §1, with “The cell lines where obtained from ATCC or the Japanese Collection of Research Bioresources (JCRB) in 2014 and culturing was performed as described previously ([7]). The” for “The”

[2] = tested on: COLO 320DM colon carcinoma cells; assay: MTS colorimetric cell growth assay, COLO 320DM; conditions: Homo sapiens, 120 h, read-out: COLO320DM GI50
Text: as §1, §2

SMILES | GI50 [1] | IC50 (WNT/β-catenin signaling) | GI50 [2]
Cc1cc(N2C[C@@H](C)N[C@@H](C)C2)ncc1-c1ccc(-c2nc3c(ccn3C)c(=O)[nH]2)cc1 [AZ6102] | 6700 nM | 16 ± 4.5 nM | 50 nM
Oc1nc(-c2ccc(C(F)(F)F)cc2)nc2c1CSCC2 [XAV939] | 9500 nM | 220 ± 21 nM | > 10000 nM
